Read-outs that look alike come from different tables or passages of the source.
How the values were obtained:
MRI-H-254 tumors = assay type: in vivo, mice; conditions: for % T/C on day 20 / % T/C on day 23 / % T/C on day 26 / % T/C on day 30 / % T/C on day 34 / % T/C on day 36 / % T/C on day 43 / % T/C on day 49 / % T/C on day 56 / % T/C on day 63: PM00104 0.90 IV, DPI 20, 27, 34
Experimental: Female athymic nude mice (Harlan Sprague Dawley, Madison, Wis.) were utilized for all experiments. Animals were housed in ventilated rack caging with food and water ad libitum. The mice were acclimated for at least 5 days prior to tumor implantation with tumor fragments.
Bacterial culture was taken on cells used to implant the study.
Treatments were initiated on DPI 20.
5-FU was provided in the form of injection vials which was diluted with 0.9% sterile Saline.
(§1) Tumor size measurements were recorded twice weekly from the treatment initiation until the termination of the study.
(§2) Mean, standard deviation and standard error of the mean were determined for tumor volume for all animal groups at all assessments. Student's t test was performed on tumor volumes at each measurement day, including at the end of the study, to determine whether there were any statistically significant differences between combination treatment groups and single monotherapy treatment groups.

[1] = system: HCT-116 (colon cancer) cell line; assay: IC50 determination, MIT (tetrazolium) assay, 72 h (Example 18); assay type: cell-based, human; conditions: Homo sapiens; HCT-116, 72 hours of drug exposure
Experimental: HCT-116 cells were grown in McCoy's supplemented with 10% Fetal Bovine Serum (FBS), 1% penicillin/streptomycin and 2 mM L-glutamine.
Before plating, cell cultures were trypsinized and cell number estimated using an automated flow cytometer.
Cells were harvested and seeded in 96 well microtiter plates at the appropriate cell density (5,000-10,000 cells) in 150 μL of media and incubated for 24 hours to allow the cells to attach before drug addition.
After the incubation period (72 hours), 50 μL of MIT solution was added to each microtiter well and incubated for further 8 hours at 37° C. The culture medium was then removed and 50 μl, of DMSO were added to dissolve the MIT crystals. Optical densities were read at 540 nm on spectrophotometer microplate reader.
IC50 values were calculated from an average of two to four assays for each of the test agents.

BxPC-3 tumors = assay type: in vivo, mice; conditions: mg/kg/day: PM00104 0.90 IV
Experimental: Female CB17.SCID mice (Charles River Lab.) were utilized for all experiments. Animals were housed in ventilated rack caging with food and water ad libitum. The mice were acclimated for at least 5 days prior to tumor implantation with a tumor cell suspension.
The tumor model used in these studies was BxPC-3 cell line, which was obtained from the ATCC (Manassas, Va.).
Treatments were initiated on DPI 9.
as §1, §2

[2] = 5-FU 100 IP mg/kg/day (G2, G3, G5)

O=c1[nH]cc(F)c(=O)[nH]1 [5-FU, 5-fluorouracil]
% T/C on day 20 (MRI-H-254 tumors; 5-FU 50 IP mg/kg/day (G4, G6)): 96.0% | % T/C on day 23 (MRI-H-254 tumors; 5-FU 50 IP mg/kg/day (G4, G6)): 52.3% | % T/C on day 26 (MRI-H-254 tumors; 5-FU 50 IP mg/kg/day (G4, G6)): 47.9% | % T/C on day 30 (MRI-H-254 tumors; 5-FU 50 IP mg/kg/day (G4, G6)): 55.3% | % T/C on day 34 (MRI-H-254 tumors; 5-FU 50 IP mg/kg/day (G4, G6)): 45.0% | % T/C on day 36 (MRI-H-254 tumors; 5-FU 50 IP mg/kg/day (G4, G6)): 45.7% | % T/C on day 43 (MRI-H-254 tumors; 5-FU 50 IP mg/kg/day (G4, G6)): 58.1% | % T/C on day 49 (MRI-H-254 tumors; 5-FU 50 IP mg/kg/day (G4, G6)): 100.0% | % T/C on day 56 (MRI-H-254 tumors; 5-FU 50 IP mg/kg/day (G4, G6)): 117.6% | % T/C on day 63 (MRI-H-254 tumors; 5-FU 50 IP mg/kg/day (G4, G6)): 123.9% | % T/C on day 20 (MRI-H-254 tumors; [2]): 101.8% | % T/C on day 23 (MRI-H-254 tumors; [2]): 55.2% | % T/C on day 26 (MRI-H-254 tumors; [2]): 47.1% | % T/C on day 30 (MRI-H-254 tumors; [2]): 36.3% | % T/C on day 34 (MRI-H-254 tumors; [2]): 31.6% | % T/C on day 36 (MRI-H-254 tumors; [2]): 23.0% | % T/C on day 43 (MRI-H-254 tumors; [2]): 30.9% | % T/C on day 49 (MRI-H-254 tumors; [2]): 54.6% | % T/C on day 56 (MRI-H-254 tumors; [2]): 96.3% | % T/C on day 63 (MRI-H-254 tumors; [2]): 107.8% | % Inhibition (MRI-H-254 tumors; day 20, PM00104 0.9 and 5-FU 50 mg/kg/day): 4.0% | % Inhibition (MRI-H-254 tumors; day 20, PM00104 0.9 and 5-FU 100 mg/kg/day): −1.8% | % Inhibition (MRI-H-254 tumors; day 23, PM00104 0.9 and 5-FU 50 mg/kg/day): 47.7% | % Inhibition (MRI-H-254 tumors; day 23, PM00104 0.9 and 5-FU 100 mg/kg/day): 44.8% | % Inhibition (MRI-H-254 tumors; day 26, PM00104 0.9 and 5-FU 50 mg/kg/day): 52.1% | % Inhibition (MRI-H-254 tumors; day 26, PM00104 0.9 and 5-FU 100 mg/kg/day): 52.9% | % Inhibition (MRI-H-254 tumors; day 30, PM00104 0.9 and 5-FU 50 mg/kg/day): 44.7% | % Inhibition (MRI-H-254 tumors; day 30, PM00104 0.9 and 5-FU 100 mg/kg/day): 63.7% | % Inhibition (MRI-H-254 tumors; day 34, PM00104 0.9 and 5-FU 50 mg/kg/day): 55.0% | % Inhibition (MRI-H-254 tumors; day 34, PM00104 0.9 and 5-FU 100 mg/kg/day): 68.4% | % Inhibition (MRI-H-254 tumors; day 36, PM00104 0.9 and 5-FU 50 mg/kg/day): 54.3% | % Inhibition (MRI-H-254 tumors; day 36, PM00104 0.9 and 5-FU 100 mg/kg/day): 77.0% | % Inhibition (MRI-H-254 tumors; day 43, PM00104 0.9 and 5-FU 50 mg/kg/day): 41.9% | % Inhibition (MRI-H-254 tumors; day 43, PM00104 0.9 and 5-FU 100 mg/kg/day): 69.1% | % Inhibition (MRI-H-254 tumors; day 49, PM00104 0.9 and 5-FU 50 mg/kg/day): 0.0% | % Inhibition (MRI-H-254 tumors; day 49, PM00104 0.9 and 5-FU 100 mg/kg/day): 45.4% | % Inhibition (MRI-H-254 tumors; day 56, PM00104 0.9 and 5-FU 50 mg/kg/day): −17.6% | % Inhibition (MRI-H-254 tumors; day 56, PM00104 0.9 and 5-FU 100 mg/kg/day): 3.7% | % Inhibition (MRI-H-254 tumors; day 63, PM00104 0.9 and 5-FU 50 mg/kg/day): −23.9% | % Inhibition (MRI-H-254 tumors; day 63, PM00104 0.9 and 5-FU 100 mg/kg/day): −7.8% | IC50 [1]: 6 µM

C#Cc1cccc(Nc2ncnc3cc(OCCOC)c(OCCOC)cc23)c1 [erlotinib]
% Inhibition (BxPC-3 tumors; day 9, erlotinib 15 PO): 0.5% | % T/C on day (BxPC-3 tumors; day 9, erlotinib 15 PO): 99.5% | % Inhibition (BxPC-3 tumors; day 9, erlotinib 30 PO): −4.2% | % T/C on day (BxPC-3 tumors; day 9, erlotinib 30 PO): 104.2% | % Inhibition (BxPC-3 tumors; day 9, erlotinib 50 PO): −2.5% | % T/C on day (BxPC-3 tumors; day 9, erlotinib 50 PO): 102.5% | % Inhibition (BxPC-3 tumors; day 12, erlotinib 15 PO): 24.1% | % T/C on day (BxPC-3 tumors; day 12, erlotinib 15 PO): 75.9% | % Inhibition (BxPC-3 tumors; day 12, erlotinib 30 PO): 15.1% | % T/C on day (BxPC-3 tumors; day 12, erlotinib 30 PO): 84.9% | % Inhibition (BxPC-3 tumors; day 12, erlotinib 50 PO): 15.1% | % T/C on day (BxPC-3 tumors; day 12, erlotinib 50 PO): 84.9% | % Inhibition (BxPC-3 tumors; day 15, erlotinib 15 PO): 7.8% | % T/C on day (BxPC-3 tumors; day 15, erlotinib 15 PO): 92.2% | % Inhibition (BxPC-3 tumors; day 15, erlotinib 30 PO): −5.8% | % T/C on day (BxPC-3 tumors; day 15, erlotinib 30 PO): 105.8% | % Inhibition (BxPC-3 tumors; day 15, erlotinib 50 PO): −14.2% | % T/C on day (BxPC-3 tumors; day 15, erlotinib 50 PO): 114.2% | % Inhibition (BxPC-3 tumors; day 19, erlotinib 15 PO): 21.0% | % T/C on day (BxPC-3 tumors; day 19, erlotinib 15 PO): 79.0% | % Inhibition (BxPC-3 tumors; day 19, erlotinib 30 PO): 6.5% | % T/C on day (BxPC-3 tumors; day 19, erlotinib 30 PO): 93.5% | % Inhibition (BxPC-3 tumors; day 19, erlotinib 50 PO): −2.6% | % T/C on day (BxPC-3 tumors; day 19, erlotinib 50 PO): 102.6% | % Inhibition (BxPC-3 tumors; day 21, erlotinib 15 PO): 33.8% | % T/C on day (BxPC-3 tumors; day 21, erlotinib 15 PO): 66.2% | % Inhibition (BxPC-3 tumors; day 21, erlotinib 30 PO): 16.3% | % T/C on day (BxPC-3 tumors; day 21, erlotinib 30 PO): 83.7% | % Inhibition (BxPC-3 tumors; day 21, erlotinib 50 PO): 15.5% | % T/C on day (BxPC-3 tumors; day 21, erlotinib 50 PO): 84.5% | % Inhibition (BxPC-3 tumors; day 26, erlotinib 15 PO): 7.5% | % T/C on day (BxPC-3 tumors; day 26, erlotinib 15 PO): 92.5% | % Inhibition (BxPC-3 tumors; day 26, erlotinib 30 PO): −14.2% | % T/C on day (BxPC-3 tumors; day 26, erlotinib 30 PO): 114.2% | % Inhibition (BxPC-3 tumors; day 26, erlotinib 50 PO): 9.0% | % T/C on day (BxPC-3 tumors; day 26, erlotinib 50 PO): 91.0% | % Inhibition (BxPC-3 tumors; day 29, erlotinib 15 PO): 16.2% | % T/C on day (BxPC-3 tumors; day 29, erlotinib 15 PO): 83.8% | % Inhibition (BxPC-3 tumors; day 29, erlotinib 30 PO): 15.2% | % T/C on day (BxPC-3 tumors; day 29, erlotinib 30 PO): 84.8% | % Inhibition (BxPC-3 tumors; day 29, erlotinib 50 PO): 40.7% | % T/C on day (BxPC-3 tumors; day 29, erlotinib 50 PO): 59.3% | % Inhibition (BxPC-3 tumors; day 33, erlotinib 15 PO): 7.9% | % T/C on day (BxPC-3 tumors; day 33, erlotinib 15 PO): 92.1% | % Inhibition (BxPC-3 tumors; day 33, erlotinib 30 PO): 13.0% | % T/C on day (BxPC-3 tumors; day 33, erlotinib 30 PO): 87.0% | % Inhibition (BxPC-3 tumors; day 33, erlotinib 50 PO): 12.1% | % T/C on day (BxPC-3 tumors; day 33, erlotinib 50 PO): 87.9% | % Inhibition (BxPC-3 tumors; day 40, erlotinib 15 PO): 18.8% | % T/C on day (BxPC-3 tumors; day 40, erlotinib 15 PO): 81.2% | % Inhibition (BxPC-3 tumors; day 40, erlotinib 30 PO): 14.5% | % T/C on day (BxPC-3 tumors; day 40, erlotinib 30 PO): 85.5% | % Inhibition (BxPC-3 tumors; day 40, erlotinib 50 PO): 15.4% | % T/C on day (BxPC-3 tumors; day 40, erlotinib 50 PO): 84.6%

— patent publication US20110070232A1, “Combination Therapy with an Antitumor Alkaloid” (Pharma Mar, S.A., priority 2008, published 2011)
